# Data reported in US20250171511A1, “ANTIVIRAL PEPTIDES AND METHODS OF USE THEREOF” (Versitech Limited, priority 2021, published 2025).
# Like-named read-outs stand apart in the source and are kept apart here. Where no end group is shown, it is not given here. 4MPA = not defined here
# Experiments:
# SARS-CoV-2 [1] = test: Antiviral activity of GAG-treated 4H30 (viral RNA copy); type: cell-based
# [2] = tested on: SARS-CoV-2 (B.1. 617.2, Delta); test: Post-exposure antiviral activity in hamsters, Delta; type: in vivo, hamster; conditions: 0.5 mg kg^−1, post exposure
# SARS-CoV-2 [3] = test: Nucleoprotein (NP) immunofluorescence assay; type: cell-based; conditions: VeroE6; virus pretreated; compared with untreated virus
# SARS-CoV-2 [4] = test: SARS-CoV-2 replication in Calu-3 cells pretreated by 4H30; type: cell-based
# SARS-CoV-2 [5] = type: cell-based
# [6] = ELISA binding of 4H30 to heparan sulfate; conditions: compared with BSA
# SARS-CoV-2 [7] = test: Viral entry fluorescence assay; type: cell-based
# SARS-CoV-2 [8] = test: Plaque reduction assay against SARS-CoV-2; type: cell-based
# Experimental: Briefly, peptides were dissolved in PBS or 30mM phosphate buffer (PBS/5) containing 24.6 mM Na2HPO4 and 5.6 mM KH2PO4 at a pH of 7.4. Peptides or bovine serum albumin (BSA, 0.2-25.0 μg ml^−1) were premixed with SARS-CoV-2 at room temperature. After 45-60 min of incubation, peptide-virus mixture was transferred to Vero-E6 cells, correspondingly. At 1 h post infection, infectious media were removed, and 1% low melting agar was added to cells. Cells were fixed using 4% formalin at 2-3 day post infection. […] (0.1%) was added for staining, and the number of plaques was counted.
# VeroE6 cells = test: MTT cytotoxicity assay in VeroE6 cells; type: cell-based
# Experimental: Cytotoxicity of peptides was determined by the detection of 50% cytotoxic concentration (CC50) using a tetrazolium-based colorimetric MTT assay (H. Zhao, et al., Sci Rep, 6 (2016) 22008). Briefly, cells were seeded in 96-well cell culture plate at an initial density of 4×10^4 cells per well in DMEM supplemented with 10% FBS and incubated for overnight. Cell culture media were removed and then DMEM supplemented with various concentrations of peptides and 1% FBS were added to each well. After 24 h incubation at 37° C., MTT solution (5 mg ml^−1, 10 μl per well) was added to each well for incubation at 37° C. for 4 h. Then, 100 μl of 10% SDS in 0.01M HCl was added to each well. After further incubation at room temperature with shaking overnight, the plates were read at OD570 using VictorTM X3 Multilabel Reader (PerkinElmer, USA). Cell culture wells without peptides were used as the experiment control and medium only served as a blank control.
substance,measurement,setting,value
GAICHPVFCPRRYKQIGTCGLPGTKCCKKP-4MPA (cysteine pairing not given here; reading uncertain; also: printed as GAICHPVFCPRRYKQIGTCGLPGTKCCKKP-4MPA) [Peptide 4H30],antiviral activity of GAG-treated 4H30,SARS-CoV-2 [1]; 4H30 treated by 1250 ng/ml of CS or HS,significantly reduced
same,antiviral activity of GAG-treated 4H30,SARS-CoV-2 [1]; CS or HS in physiological concentration (50˜100 ng/ml),still significantly inhibit viral replication
same,SARS-CoV-2 replication in hamsters,[2],significantly inhibited
same,syncytium formation and bronchial epithelial pathology in lungs,[2],reduced the syncytium formation and bronchial epithelial pathology
same,"anti-NP staining, viral replication",SARS-CoV-2 [3],viral replication was significantly inhibited and restricted in very few cells
same,SARS-CoV-2 replication,SARS-CoV-2 [4],did not increase SARS-CoV-2 replication
same,attachment of SARS-CoV-2 to cells,SARS-CoV-2 [5]; 4H30 pretreated by GAGs,significantly reduced
same,attachment of SARS-CoV-2 to cells,SARS-CoV-2 [5]; A549 (ACE2^−) cells treated by 4H30,significantly increased
same,attachment of SARS-CoV-2 to cells,SARS-CoV-2 [5]; Calu-3 (ACE2^+) cells treated by 4H30,significantly increased
same,attachment of SARS-CoV-2 to cells,SARS-CoV-2 [5]; cells pretreated by Chondroitinase ABC and Heparinase,significantly reduced
same,binding to heparan sulfate (HS),[6],effectively bind
same,viral clustering and entry,SARS-CoV-2 [7],did not cluster viral particles and did not block viral entry
same,viral clustering and entry,"SARS-CoV-2 [7]; virus pretreated, Calu-3 and VeroE6 cells",cross-link SARS-CoV-2 to form big viral clusters on Calu-3 and VeroE6 cell membrane without viral entry
same,IC50,"SARS-CoV-2 [8]; virus premixed with peptide in PBS, plaque reduction",0.59 µg/mL
same,SARS-CoV-2 infection after dilution of treated virus,"SARS-CoV-2 [8]; virus pretreated by 50 μg ml^−1, then 10,000-fold diluted (0.005 μg ml^−1)",significantly inhibited SARS-CoV-2 infection
same,TC50,VeroE6 cells,higher than 400 μg ml^−1
